In patent publication US20240043427A1 (Gilead Sciences, Inc., priority 2020, published 2024) one finds EC50 and IC50 data, which are given here for 26 compounds.

Values joined by “and” are separate entries in the source; they are usually repeats but may differ in a detail not shown here. Equal values may be shown once. Bounds are passed on as bounds.

The target of assay [1] is T1, CD73 (Homo sapiens (Human), UniProt P21589). Description: MDA-MB-231 Cell Based CD73 Activity Assay. To be noted: MDA-MB-231-GFP cells, RPMI medium with 10% human plasma, 200 uM AMP. On the procedure:
MDA-MB-231 Cell Based CD73 Activity Assay
MDA-MB-231-GFP cells were seeded in 384-well plates (Greiner 781946) at a density of 10000 cells per well in 50 μL of RPMI medium with 10% HP (human plasma). Cells were plated into assay plate with compounds pre-spotted, for an overnight compound treatment. 50 μL of 400 μM AMP (final concentration 200 μM) using a Bio-tek dispenser. Plates were incubated for 100 mins. […] The samples were run using Rapid fire.

The target in assay [2] is T1, CD73. In words: CD73 Biochemical IC50 Assay. To be noted: CD73 0.3 nM, AMP 15 uM, 25 mM Tris pH 7.4, 5 mM MgCl2. On the procedure: CD73 Biochemical IC50 Assay
Compound serial dilutions were pre-spotted into Thermo Nunc assay plate. 50 μL CD73 enzyme buffer (CD73 purchased from R&D system=0.6 nM, 25 mM Tris, pH 7.4, 5 mM MgCl2) was added into the assay plate and incubated for 15 mins. […] The samples were run using Rapid fire.

T1 sequence (P21589 27-574): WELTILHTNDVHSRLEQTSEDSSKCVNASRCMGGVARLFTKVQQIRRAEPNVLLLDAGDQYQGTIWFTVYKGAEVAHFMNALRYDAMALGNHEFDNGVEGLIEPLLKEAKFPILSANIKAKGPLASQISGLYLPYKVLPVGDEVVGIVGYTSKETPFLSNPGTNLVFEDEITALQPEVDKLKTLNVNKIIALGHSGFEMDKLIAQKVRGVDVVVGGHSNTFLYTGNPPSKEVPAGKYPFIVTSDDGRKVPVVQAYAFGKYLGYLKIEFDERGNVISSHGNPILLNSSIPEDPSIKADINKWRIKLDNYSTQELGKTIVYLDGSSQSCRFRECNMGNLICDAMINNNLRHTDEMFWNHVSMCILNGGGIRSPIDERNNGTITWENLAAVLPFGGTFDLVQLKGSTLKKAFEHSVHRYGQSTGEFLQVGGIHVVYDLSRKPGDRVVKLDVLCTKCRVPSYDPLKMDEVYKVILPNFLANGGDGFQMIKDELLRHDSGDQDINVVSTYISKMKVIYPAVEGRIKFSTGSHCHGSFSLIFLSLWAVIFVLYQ

At CD73 [1], `CC1(C)CCN(c2cc(-c3c[nH]c(=O)[nH]c3=O)nc3ccnn23)C1` [Example 91, 5-(7-(3,3-dimethylpyrrolidin-1-yl)pyrazolo[1,5-a]pyrimidin-5-yl)pyrimidine-2,4(1H,3H)-dione] gave an EC50 of 62.2 nM. The IC50 on CD73 [2] came out at 104 nM.

On CD73 [1], `O=c1[nH]cc(-c2cc(C3CC3)c3nc(-c4cccnc4)cn3n2)c(=O)[nH]1` [Example 102, 5-(8-cyclopropyl-2-(pyridin-3-yl)imidazo[1,2-b]pyridazin-6-yl)pyrimidine-2,4(1H,3H)-dione] registered a 50% effective concentration (EC50) of 258 nM. The compound also registered a concentration for half-maximal inhibition (IC50) against CD73 [2] of 473 nM.

In turn, `O=c1[nH]cc(-c2cc(N3CCC3c3ccccc3)c3nccn3n2)c(=O)[nH]1` (stereo not shown) [Example 66, 5-(8-(2-phenylazetidin-1-yl)imidazo[1,2-b]pyridazin-6-yl)pyrimidine-2,4(1H,3H)-dione] registered an EC50 at CD73 [1] of 4470 nM. For the same compound, the IC50 at CD73 [2] was > 2500 nM.

Turning to `O=c1[nH]cc(-c2cc(C3CC3)n3nccc3n2)c(=O)[nH]1` [Example 27, 5-(7-cyclopropylpyrazolo[1,5-a]pyrimidin-5-yl)pyrimidine-2,4(1H,3H)-dione], on CD73 [1], the 50% effective concentration (EC50) was 145 nM. In addition, the half-maximal inhibitory concentration (IC50) at CD73 [2] was determined as 90.4 nM.

`O=c1[nH]cc(-c2cc(C3CC3)c3nc(C4CC4)cn3n2)c(=O)[nH]1` [Example 75, 5-(2,8-dicyclopropylimidazo[1,2-b]pyridazin-6-yl)-1H-pyrimidine-2,4-dione] returned an EC50 at CD73 [1] of 136 nM. On CD73 [2], it took 126 nM to reach half-maximal inhibition (IC50).

`O=c1[nH]cc(-c2cc(Cc3ccccc3)c3nccn3n2)c(=O)[nH]1` [Example 17, 5-(8-benzylimidazo[1,2-b]pyridazin-6-yl)-1H-pyrimidine-2,4-dione] had a 50% effective concentration (EC50) at CD73 [1] of 3670 nM. Besides, the IC50 against CD73 [2] was > 2500 nM.

Turning to `O=c1[nH]cc(-c2cc(N3CC4CCC(C4)C3)c3nccn3n2)c(=O)[nH]1` [Example 94, 5-(8-(3-azabicyclo[3.2.1]octan-3-yl)imidazo[1,2-b]pyridazin-6-yl)pyrimidine-2,4(1H,3H)-dione], it took 76 nM to reach a half-maximal effect on CD73 [1] (EC50). This compound registered a 50% inhibitory concentration (IC50) against CD73 [2] of 132 nM.

Take `CC(C)(C)[C@H]1C[C@@H]1c1cc(-c2c[nH]c(=O)[nH]c2=O)nn2ccnc12` (racemic) [Example 6, 5-(8-((1S,2S)-2-(tert-butyl)cyclopropyl)imidazo[1,2-b]pyridazin-6-yl)pyrimidine-2,4-(1H,3H)-dione and 5-(8-((1R,2R)-2-(tert-butyl)cyclopropyl)imidazo[1,2-b]pyridazin-6-yl)pyrimidine-2,4-(1H,3H)-dione]: on CD73 [1], it took 184 nM to reach a half-maximal effect (EC50). The same compound gave an IC50 at CD73 [2] of 164 nM.

As to `CC(C)Oc1cc(-c2c[nH]c(=O)[nH]c2=O)nn2ccnc12` [Example 25, 5-(8-isopropoxyimidazo[1,2-b]pyridazin-6-yl)pyrimidine-2,4(1H,3H)-dione], at CD73 [1], the EC50 is 361 nM and 429 nM. Also, on CD73 [2], the IC50 was 657 nM and 557 nM.

At CD73 [1], `O=c1[nH]cc(-c2cc([C@H]3C[C@@H]3c3ccc(F)c(F)c3)c3ncc(F)n3n2)c(=O)[nH]1` [Example 90, 5-[8-[(1S,2S)-2-(3,4-difluorophenyl)cyclopropyl]-3-fluoro-imidazo[1,2-b]pyridazin-6-yl]-1H-pyrimidine-2,4-dione] showed a 50% effective concentration (EC50) of 1.79 nM. Also, on CD73 [2], the half-inhibitory concentration (IC50) came to 9.91 nM.

Regarding `O=c1[nH]cc(-c2cc(-n3cccn3)c3nccn3n2)c(=O)[nH]1` [Example 78, 5-(8-pyrazol-1-ylimidazo[1,2-b]pyridazin-6-yl)-1H-pyrimidine-2,4-dione], the concentration giving a half-maximal response (EC50) at CD73 [1] worked out at 1230 nM. Further, on CD73 [2], the IC50 amounted to 1920 nM.

For `O=c1[nH]cc(-c2cc([C@H]3CC34CCC4)c3nccn3n2)c(=O)[nH]1` (racemic) [Example 5, (S)-5-(8-(spiro[2.3]hexan-1-yl)imidazo[1,2-b]pyridazin-6-yl)pyrimidine-2,4(1H,3H)-dione and (R)-5-(8-(spiro[2.3]hexan-1-yl)imidazo[1,2-b]pyridazin-6-yl)pyrimidine-2,4(1H,3H)-dione], the EC50 at CD73 [1] was 2020 nM and 2530 nM. For the same compound, the IC50 against CD73 [2] was 1550 nM and 2500 nM.

For `O=c1[nH]cc(-c2cc([C@H]3C[C@@H]3c3cccc(C(F)(F)F)c3)c3nccn3n2)c(=O)[nH]1` (racemic) [Example 41, 5-[8-[(1S,2S)-2-[3-(trifluoromethyl)phenyl]cyclopropyl]imidazo[1,2-b]pyridazin-6-yl]-1H-pyrimidine-2,4-dione and 5-[8-[(1R,2R)-2-[3-(trifluoromethyl)phenyl]cyclopropyl]imidazo[1,2-b]pyridazin-6-yl]-1H-pyrimidine-2,4-dione], it took 18.6 nM to reach a half-maximal effect at CD73 [1] (EC50). Moreover, on CD73 [2], the IC50 amounted to 61.6 nM.

With `O=c1[nH]cc(-c2cc(C3CC3)c3ncc(F)n3n2)c(=O)[nH]1` [Example 69, 5-(8-cyclopropyl-3-fluoro-imidazo[1,2-b]pyridazin-6-yl)-1H-pyrimidine-2,4-dione], the 50% effective concentration (EC50) at CD73 [1] was found to be 47.8 nM. For the same compound, at CD73 [2], 55.4 nM corresponded to half-maximal inhibition (IC50).

`O=c1[nH]cc(-c2cc(-c3ccc(NCC4CC4)cc3)c3nccn3n2)c(=O)[nH]1` [Example 71, 5-[8-[4-(cyclopropylmethylamino)phenyl]imidazo[1,2-b]pyridazin-6-yl]-1H-pyrimidine-2,4-dione] registered an EC50 on CD73 [1] of 649 nM. In addition, half-maximal inhibition on CD73 [2] (IC50) was put at 1490 nM.

Turning to `CN(Cc1ccccc1)c1cc(-c2c[nH]c(=O)[nH]c2=O)nn2ccnc12` [Example 13, 5-(8-(benzyl(methyl)amino)imidazo[1,2-b]pyridazin-6-yl)pyrimidine-2,4(1H,3H)-dione], the 50% effective concentration (EC50) on CD73 [1] was 692 nM and 896 nM. Besides, on CD73 [2], the IC50 was 368 nM and 607 nM.

The compound `O=c1[nH]cc(-c2cc([C@H]3C[C@@H]3c3cccc4ccccc34)c3nccn3n2)c(=O)[nH]1` (racemic) [Example 74, 5-[8-[(1S,2S)-2-(1-naphthyl)cyclopropyl]imidazo[1,2-b]pyridazin-6-yl]-1H-pyrimidine-2,4-dione and 5-[8-[(1R,2R)-2-(1-naphthyl)cyclopropyl]imidazo[1,2-b]pyridazin-6-yl]-1H-pyrimidine-2,4-dione] had an EC50 at CD73 [1] of 540 nM. Besides, inhibition on CD73 [2] was half-maximal at 170 nM (IC50).

On to `O=c1[nH]cc(-c2cc(C3CC3)c3nc(-c4ccccc4)cn3n2)c(=O)[nH]1` [Example 2, 5-(8-cyclopropyl-2-phenyl-imidazo[1,2-b]pyridazin-6-yl)-1H-pyrimidine-2,4-dione], for which the half-maximal effective concentration (EC50) on CD73 [1] worked out at 53.3 nM. This compound showed a 50% inhibitory concentration (IC50) against CD73 [2] of 32.4 nM.

Take `O=c1[nH]cc(-c2cc([C@H]3C[C@@H]3c3cc(F)cc(F)c3)c3nccn3n2)c(=O)[nH]1` (racemic) [Example 60, 5-(8-((1S,2S)-2-(3,5-difluorophenyl)cyclopropyl)imidazo[1,2-b]pyridazin-6-yl)pyrimidine-2,4(1H,3H)-dione and 5-(8-((1R,2R)-2-(3,5-difluorophenyl)cyclopropyl)imidazo[1,2-b]pyridazin-6-yl)pyrimidine-2,4(1H,3H)-dione]: the 50% effective concentration (EC50) on CD73 [1] worked out at 6.43 nM. At CD73 [2], this compound registered a half-inhibitory concentration (IC50) of 12.6 nM.

Take `O=c1[nH]cc(-c2cc(C3CC3)c3nc(-c4ccccc4C(F)(F)F)cn3n2)c(=O)[nH]1` [Example 96, 5-(8-cyclopropyl-2-(2-(trifluoromethyl)phenyl)imidazo[1,2-b]pyridazin-6-yl)pyrimidine-2,4(1H,3H)-dione]: at CD73 [1], the EC50 came to 66.6 nM. At CD73 [2], the IC50 was 773 nM.

Take `O=c1[nH]cc(-c2cc(N3CCC(c4ccc(F)cc4)C3)c3nccn3n2)c(=O)[nH]1` (stereo in doubt) [Example 68, 5-[8-[(3S)-3-(4-fluorophenyl)pyrrolidin-1-yl]imidazo[1,2-b]pyridazin-6-yl]-1H-pyrimidine-2,4-dione]: it took 67.5 nM to reach a half-maximal effect on CD73 [1] (EC50). At CD73 [2], this compound came in with an IC50 of 69.5 nM.

`O=c1[nH]cc(-c2cc([C@H]3C[C@@H]3c3cccc(OC(F)(F)F)c3)c3nccn3n2)c(=O)[nH]1` (racemic) [Example 47, 5-(8-((1S,2S)-2-(3-(trifluoromethoxy)phenyl)cyclopropyl)imidazo[1,2-b]pyridazin-6-yl) pyrimidine-2,4(1H,3H)-dione and 5-(8-((1R,2R)-2-(3-(trifluoromethoxy)phenyl)cyclopropyl)imidazo[1,2-b]pyridazin-6-yl) pyrimidine-2,4(1H,3H)-dione] came in with a 50% effective concentration (EC50) on CD73 [1] of 13.7 nM. For the same compound, inhibition at CD73 [2] was half-maximal at 47.2 nM (IC50).

`O=c1[nH]cc(-c2cc(C3CC3)c3nc(-c4ccncc4)cn3n2)c(=O)[nH]1` [Example 97, 5-(8-cyclopropyl-2-(pyridin-4-yl)imidazo[1,2-b]pyridazin-6-yl)pyrimidine-2,4(1H,3H)-dione]: the EC50 at CD73 [1] worked out at 2050 nM. For the same compound, the IC50 against CD73 [2] was > 2500 nM.

On to `O=c1[nH]cc(-c2cc(OCc3ccccc3)c3nccn3n2)c(=O)[nH]1` [Example 26], for which, at CD73 [1], a half-maximal response (EC50) required 184 nM. This compound also gave an IC50 against CD73 [2] of 161 nM.

On CD73 [1], `CC(C)c1cc(-c2c[nH]c(=O)[nH]c2=O)nn2cc(C(F)(F)F)nc12` [Example 15, 5-(8-isopropyl-2-(trifluoromethyl)imidazo[1,2-b]pyridazin-6-yl)pyrimidine-2,4(1H,3H)-dione] showed a 50% effective concentration (EC50) of 920 nM. This compound also returned a concentration for half-maximal inhibition (IC50) on CD73 [2] of 2350 nM.

Take `O=c1[nH]cc(-c2cc(NCc3ccccc3)c3nccn3n2)c(=O)[nH]1` [Example 12, 5-(8-(benzylamino)imidazo[1,2-b]pyridazin-6-yl)pyrimidine-2,4(1H,3H)-dione]: the EC50 at CD73 [1] is 508 nM and 689 nM. Further, the IC50 against CD73 [2] was 479 nM and 653 nM.

One may read the EC50 as the midpoint of the concentration-response curve. The term IC50 denotes the midpoint of a concentration-inhibition curve.
